According to patent US9714244B2, “Substituted pyrido[4,3-d]pyrimidines as Wee-1 inhibitors” (ALMAC DISCOVERY LIMITED, priority 2013, dated 2017):
Where a name gives a salt, the structure may show the parent alone.

Columns and labels:
[1] = Oral bioavailability in rat; conditions: in vivo
Description: Compounds of the present invention are orally bioavailable.

[2] = Human hepatocyte assay CLint; assay type: in vitro ADME; conditions: hepatocytes
Experimental: (§1) Compounds of the present invention have good stability in human and/or rat hepatocyte incubations. In particular, representative examples 7, 8, 13, 18, 20 have CLint of <20 μL/min/10^6 cells in a human hepatocyte assay and/or <40 μL/min/10^6 cells in a rat hepatocyte assay.

[3] = Rat hepatocyte assay CLint; assay type: in vitro ADME; conditions: hepatocytes
Experimental: as §1

[4] = tested on: phospho-cdc2 (Tyr15) in HT-29 cells; assay: Effect on phosphorylation of cdc2 at Tyr15 in HT-29 cells (PathScan ELISA); assay type: cell-based; conditions: Homo sapiens, HT-29, 8 h; HT29 cells, eight hours incubation; read-out: HT29 pCDC2 activity
Experimental: Method 2: Determining the effect of compounds on the phosphorylation of cdc2 at Tyr15
The colorectal cancer cell lines HT-29 and HCT-116 were purchased from the ATCC and routinely maintained in McCoy's Medium (Invitrogen) supplemented with 10% Foetal Calf Serum.
The cells were trypsinised from their growing vessel and counted, 100 μL of cell suspension containing 6000 cells was pipetted into black 96 well Co-star plates and incubated overnight to allow adherence to the surface at a temperature of 37° C. and an atmosphere of 5% CO2. Test compounds were formulated in DMSO and diluted in foetal calf serum supplemented medium. Incubating medium was removed by aspiration and diluted drug supplemented medium added to each well.
The plate was returned to the incubator for an additional eight hours at 37° C. and an atmosphere of 5% CO2. Post incubation, the drug supplemented medium was aspirated from each well and the cells were washed once in ice-cold phosphate buffered saline (PBS). 100 μL of cell lysis buffer (Cell Signalling Technologies #9803) containing 20 mM Tris, 150 mM NaCl, 1 mM EDTA, 1 mM EGTA, 1% Triton-X100, 2.5 mM sodium pyrophosphate, 1 mM glycerophosphate, 1 mM Na3VO4 and 1 μg/mL leupeptin was added to each well of the 96 well plate and incubated at 4° C. for 30 min. The samples on the plate were snap frozen at −80° C. until required.
Immediately before the continuation of the assay, the sample plate was thawed and centrifuged at 4° C. for 10 min and the supernatant transferred to secondary tubes or 96 well plate.
Cell supernatant was mixed in a ratio of 1:1 with sample dilutent buffer and vortexed for one minute. 100 μL of diluted sample was pipetted into pre-coated plates containing a rabbit polyclonal antibody for phospho-cdc2 (Tyr15) (Cell Signalling Technologies PathScan kit #7176). The plate was sealed and incubated overnight at 4° C.
The plate seal was removed and the well contents aspirated, followed by 3×5 min washes with 200 μL of diluted wash buffer. Between each wash the plate was tapped firmly onto blotting paper to ensure the removal of all kit solution. 100 μL of kit detection antibody was added to each well and the plate re-sealed and incubated at 37° C. for 1 h. Post incubation the plate was washed and processed in a similar manner to that previously described.
100 μL of horseradish peroxidise-linked secondary antibody was added to each test well, the plate sealed and incubated for thirty minutes at 37° C. Post incubation, the plate was washed as previously stated, followed by the addition of 100 μL of 3,3′,5,5′ tetramethylbenzidine (TMB reagent). The plate was sealed and incubated at RT for 30 min.
100 μL of stop solution was added to each well and the underside of the plate wiped with a lint-free tissue, prior to spectrophotometric determination. Absorbance from each well was read at 450 nm within 30 min of the addition of the stop solution.
The percentage of phospho-cdc2 was calculated compared to DMSO control and plotted versus the concentration of inhibitor using GraphPad Prism. Data was fitted using non-linear regression analysis and IC50 values generated.

[5] = CLint estimates using human liver microsomes; assay type: in vitro ADME; conditions: pH 7.4, read-out: HLM activity (HLM CLint)
Experimental: Method for the Determination of CLint Estimates Using Human Liver Microsomes
Test compounds (final concentration=1 μM; final DMSO concentration=0.1%) were incubated in 0.1M phosphate buffer pH 7.4 with human liver microsomes (0.5 mg of protein/mL) at 37° C. Reactions were started by addition of NADPH in 0.1M phosphate buffer pH 7.4 (final concentration 1 mM). 40 μL aliquots were removed at 2, 5, 10, 15, 20, 30, 40 and 50 min. Reactions were quenched in 80 μL of ice-cold methanol. Samples were subsequently frozen overnight then centrifuged at 3500 rpm for 20 min at 4° C. The supernatants were removed and transferred into analytical plates and analysed by LC/MS/MS.
All samples were analysed on a Waters Acquity I-Class coupled to a Waters Xevo TQD mass spectrometer. A Waters BEH C18 2.1×50 mm 1.7 μm column was used and mobile phases were water and methanol containing 0.1% formic acid as modifier. Analysis was by multiple reaction monitoring and conditions were optimised for each test compound.
From a plot of ln peak area against time, the gradient of the line is determined. Subsequently, half-life and intrinsic clearance are calculated using the following equations.

[6] = target: Wee-1 kinase (Homo sapiens (Human), UniProt P30291); assay: Measurement of Wee-1 kinase activity (ADP-Glo); assay type: biochemical; conditions: read-out: Wee-1 IC50 activity
Experimental: Method 1: Measurement of Wee-1 kinase activity
In the measurement of Wee-1 activity, a commercial peptide Poly(Lys Tyr(4:1)) hydrobromide was purchased from Sigma Aldrich and used as the substrate. Activated Wee-1 kinase was purchased from Invitrogen (PV3817) and an ADP-Glo luminescent kit was purchased from Promega.
All reactions took place in […] volumes in reaction buffer containing 40 mM Tris-HCl and 20 mM magnesium chloride, supplemented with 0.1 mg/mL bovine serum albumin and 2 mM DTT. Compounds were serially diluted in buffer and 5 μL of each concentration pipetted into a white 384 well plate (Sigma Aldrich M6186). A 5 μL aliquot of the Wee-1 enzyme was added to each well and the plate centrifuged for 1 min to ensure mixing of the enzyme and inhibitor.
The plate was incubated at room temperature for 30 minutes before the addition of 2.0 μg/mL of substrate and 30 μM ATP in a 5 μL aliquot. The plate was centrifuged for one minute and incubated for 1 h at RT.
15 μL of ADP-Glo stop reagent was added to each well to quench the reaction and deplete unconverted ATP. The plate was incubated for a further 40 min in the dark at RT.
30 μL of ADP-Glo kinase detection reagent was added to each well, converting ADP to ATP, catalysing the generation of luciferin by luciferase. The plate was shaken for 1 min, and incubated in the dark for an additional hour.
Luminescence from each well was detected using the Biotek Synergy4 HD plate reader and the percentage inhibition of kinase activity calculated for each inhibitor tested. Positive (kinase only) and negative (no kinase) controls were added to each plate to ensure specific interaction of kinase and inhibitor. The IC50 concentration for each inhibitor was calculated by plotting the percentage kinase inhibition against concentration of inhibitor and the curve generated by non-linear regression fitting.

[7] = target: human ether a go-go related gene (hERG) K+ channel (Homo sapiens (Human), UniProt Q12809); assay: hERG inhibition, IonWorks patch clamp electrophysiology; assay type: cell-based; conditions: 8-point curve from 11 μM
Experimental: Compounds were tested for inhibition of the human ether a go-go related gene (hERG) K^+ channel using IonWorks patch clamp electrophysiology at Essen BioScience.

[8] = target: CYP2C9 (Homo sapiens (Human), UniProt P11712); assay: Time dependent CYP inhibition: CYP2C9; assay type: in vitro ADME; conditions: 30 min pre incubation ±NADPH relative to direct inhibition IC50 with no pre-incubation
Description: (§2) Compounds of the present invention have no time dependent CYP inhibition.

[9] = target: CYP2C19 (Homo sapiens (Human), UniProt P33261); assay: Time dependent CYP inhibition: CYP2C19; assay type: in vitro ADME; conditions: 30 min pre incubation ±NADPH relative to direct inhibition IC50 with no pre-incubation
Description: as §2

[10] = target: CYP2D6 (Homo sapiens (Human), UniProt P10635); assay: Time dependent CYP inhibition: CYP2D6; assay type: in vitro ADME; conditions: 30 min pre incubation ±NADPH relative to direct inhibition IC50 with no pre-incubation
Description: as §2

[11] = target: CYP3A4 (Homo sapiens (Human), UniProt P08684); assay: Time dependent CYP inhibition: CYP3A4; assay type: in vitro ADME; conditions: 30 min pre incubation ±NADPH relative to direct inhibition IC50 with no pre-incubation
Description: as §2

Wee-1 kinase, sequence (P30291 whole entry): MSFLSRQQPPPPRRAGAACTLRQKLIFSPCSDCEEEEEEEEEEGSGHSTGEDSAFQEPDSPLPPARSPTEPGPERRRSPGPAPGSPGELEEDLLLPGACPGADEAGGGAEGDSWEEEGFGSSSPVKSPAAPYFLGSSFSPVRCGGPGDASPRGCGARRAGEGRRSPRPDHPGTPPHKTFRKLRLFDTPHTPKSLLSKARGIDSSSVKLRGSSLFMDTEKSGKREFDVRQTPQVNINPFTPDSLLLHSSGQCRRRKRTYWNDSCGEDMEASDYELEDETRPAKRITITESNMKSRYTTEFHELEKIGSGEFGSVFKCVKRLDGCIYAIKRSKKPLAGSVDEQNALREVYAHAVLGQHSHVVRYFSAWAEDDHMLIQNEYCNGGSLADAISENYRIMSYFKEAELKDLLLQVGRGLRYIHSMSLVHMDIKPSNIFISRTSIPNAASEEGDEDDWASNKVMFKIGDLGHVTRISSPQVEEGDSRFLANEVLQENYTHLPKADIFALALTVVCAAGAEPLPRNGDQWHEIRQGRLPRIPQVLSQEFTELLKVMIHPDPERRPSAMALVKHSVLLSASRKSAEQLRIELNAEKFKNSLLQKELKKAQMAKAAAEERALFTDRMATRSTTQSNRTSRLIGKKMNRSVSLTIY
human ether a go-go related gene (hERG) K+ channel, sequence (Q12809 whole entry): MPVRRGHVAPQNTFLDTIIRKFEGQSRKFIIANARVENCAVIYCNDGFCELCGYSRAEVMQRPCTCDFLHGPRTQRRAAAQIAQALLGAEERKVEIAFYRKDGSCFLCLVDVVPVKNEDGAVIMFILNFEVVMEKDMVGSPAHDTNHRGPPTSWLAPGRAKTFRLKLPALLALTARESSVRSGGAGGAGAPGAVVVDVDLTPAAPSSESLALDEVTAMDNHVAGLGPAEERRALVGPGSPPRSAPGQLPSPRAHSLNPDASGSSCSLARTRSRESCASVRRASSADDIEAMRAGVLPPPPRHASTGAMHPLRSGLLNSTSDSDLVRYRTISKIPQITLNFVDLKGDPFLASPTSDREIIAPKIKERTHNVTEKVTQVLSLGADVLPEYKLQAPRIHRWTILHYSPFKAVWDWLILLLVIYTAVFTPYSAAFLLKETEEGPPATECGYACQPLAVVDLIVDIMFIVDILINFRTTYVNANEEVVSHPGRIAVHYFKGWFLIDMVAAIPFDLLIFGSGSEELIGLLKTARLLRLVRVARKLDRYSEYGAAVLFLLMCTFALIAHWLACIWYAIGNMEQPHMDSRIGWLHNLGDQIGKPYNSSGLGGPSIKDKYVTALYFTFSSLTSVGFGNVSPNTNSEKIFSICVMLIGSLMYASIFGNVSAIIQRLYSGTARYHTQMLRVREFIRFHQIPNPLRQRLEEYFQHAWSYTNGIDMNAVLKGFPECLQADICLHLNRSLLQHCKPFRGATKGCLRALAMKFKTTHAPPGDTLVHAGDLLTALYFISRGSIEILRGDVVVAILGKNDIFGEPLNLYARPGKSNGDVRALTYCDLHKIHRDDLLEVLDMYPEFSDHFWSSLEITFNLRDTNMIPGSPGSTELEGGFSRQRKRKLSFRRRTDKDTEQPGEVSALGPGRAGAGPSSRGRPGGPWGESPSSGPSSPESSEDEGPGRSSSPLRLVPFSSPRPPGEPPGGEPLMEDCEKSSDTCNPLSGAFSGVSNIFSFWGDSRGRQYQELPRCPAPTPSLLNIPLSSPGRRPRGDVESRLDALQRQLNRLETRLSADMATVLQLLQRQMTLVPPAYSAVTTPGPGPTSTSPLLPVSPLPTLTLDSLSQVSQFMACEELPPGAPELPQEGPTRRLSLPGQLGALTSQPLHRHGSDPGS
CYP2C19, sequence (P33261 whole entry): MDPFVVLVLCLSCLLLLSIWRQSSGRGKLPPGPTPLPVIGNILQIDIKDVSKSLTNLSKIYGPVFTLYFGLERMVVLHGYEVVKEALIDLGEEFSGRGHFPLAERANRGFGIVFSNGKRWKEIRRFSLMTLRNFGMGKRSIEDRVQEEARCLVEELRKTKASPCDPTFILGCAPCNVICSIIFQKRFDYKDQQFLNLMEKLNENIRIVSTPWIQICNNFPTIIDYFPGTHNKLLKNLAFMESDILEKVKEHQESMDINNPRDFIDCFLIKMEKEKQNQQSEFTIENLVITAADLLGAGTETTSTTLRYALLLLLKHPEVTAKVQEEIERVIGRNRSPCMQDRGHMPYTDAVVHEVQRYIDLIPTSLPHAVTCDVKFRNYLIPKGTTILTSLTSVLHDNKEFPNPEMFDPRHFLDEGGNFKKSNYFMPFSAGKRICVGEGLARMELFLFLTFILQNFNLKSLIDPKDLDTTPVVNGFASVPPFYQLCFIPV
CYP2D6, sequence (P10635 whole entry): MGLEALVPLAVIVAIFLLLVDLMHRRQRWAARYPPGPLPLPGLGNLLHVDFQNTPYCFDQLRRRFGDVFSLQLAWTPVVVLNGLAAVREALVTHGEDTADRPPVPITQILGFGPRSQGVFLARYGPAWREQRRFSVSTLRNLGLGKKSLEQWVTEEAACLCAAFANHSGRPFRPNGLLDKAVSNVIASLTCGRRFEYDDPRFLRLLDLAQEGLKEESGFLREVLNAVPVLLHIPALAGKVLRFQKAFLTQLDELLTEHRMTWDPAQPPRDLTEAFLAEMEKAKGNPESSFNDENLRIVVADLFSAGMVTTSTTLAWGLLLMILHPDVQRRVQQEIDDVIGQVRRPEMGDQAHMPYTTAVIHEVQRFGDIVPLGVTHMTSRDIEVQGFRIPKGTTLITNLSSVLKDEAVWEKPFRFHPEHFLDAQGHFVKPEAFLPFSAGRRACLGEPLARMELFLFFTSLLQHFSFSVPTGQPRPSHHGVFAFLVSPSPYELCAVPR
CYP2C9, sequence (P11712 whole entry): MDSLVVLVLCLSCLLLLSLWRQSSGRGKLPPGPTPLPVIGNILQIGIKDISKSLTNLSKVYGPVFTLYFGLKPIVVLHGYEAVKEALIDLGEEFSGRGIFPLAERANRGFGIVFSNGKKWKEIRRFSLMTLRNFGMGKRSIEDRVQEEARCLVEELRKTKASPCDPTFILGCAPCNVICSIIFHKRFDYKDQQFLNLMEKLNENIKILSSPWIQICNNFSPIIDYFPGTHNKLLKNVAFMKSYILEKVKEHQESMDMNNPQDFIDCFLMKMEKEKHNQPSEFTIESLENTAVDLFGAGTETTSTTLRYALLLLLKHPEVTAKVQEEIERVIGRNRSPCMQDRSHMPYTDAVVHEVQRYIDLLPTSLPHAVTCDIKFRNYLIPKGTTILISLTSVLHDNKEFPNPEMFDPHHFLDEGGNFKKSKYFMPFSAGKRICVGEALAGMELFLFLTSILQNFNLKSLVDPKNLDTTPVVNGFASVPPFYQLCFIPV
CYP3A4, sequence (P08684 whole entry): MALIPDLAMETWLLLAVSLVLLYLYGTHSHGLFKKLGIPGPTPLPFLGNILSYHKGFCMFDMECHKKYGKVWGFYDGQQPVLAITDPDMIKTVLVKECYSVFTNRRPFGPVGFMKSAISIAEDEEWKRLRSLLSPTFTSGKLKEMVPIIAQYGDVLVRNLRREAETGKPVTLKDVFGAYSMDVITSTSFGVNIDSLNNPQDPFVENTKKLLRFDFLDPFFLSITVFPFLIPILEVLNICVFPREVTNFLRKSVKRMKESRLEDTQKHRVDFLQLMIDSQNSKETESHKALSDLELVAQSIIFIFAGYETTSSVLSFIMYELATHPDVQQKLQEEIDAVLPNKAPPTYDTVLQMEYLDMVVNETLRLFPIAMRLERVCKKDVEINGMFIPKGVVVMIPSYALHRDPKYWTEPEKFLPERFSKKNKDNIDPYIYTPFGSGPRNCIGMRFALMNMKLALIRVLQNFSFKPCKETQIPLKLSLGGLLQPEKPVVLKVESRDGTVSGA

Row | bioavailability [1] [%] | hepatocyte CLint [2] [µL/min/1e6 cells] | hepatocyte CLint [3] [µL/min/1e6 cells] | IC50 [4] [nM] | microsomal CLint at 1 μM [5] [µL/min/mg] | IC50 [6] [nM] | time dependent inhibition of CYP2C9: shift in IC50 [8] [fold] | time dependent inhibition of CYP2C19: shift in IC50 [9] [fold] | time dependent inhibition of CYP2D6: shift in IC50 [10] [fold] | time dependent inhibition of CYP3A4: shift in IC50 [11] [fold] | Structure (SMILES) | IC50 [7] [nM]
1 | > 25 | < 20 | < 40 | ≤ 100 | ≤ 20 | < 10 |  |  |  |  | Cc1cc(Nc2ncc3c(=O)n(-c4c(Cl)cccc4Cl)ccc3n2)ccc1N1CCNCC1 [Example 7, 6-(2,6-Dichlorophenyl)-2-((3-methyl-4-(piperazin-1-yl)phenyl)amino)pyrido[4,3-d]pyrimidin-5(6H)-one] | 1000 to 10000
2 | > 25 | < 20 | < 40 | ≤ 100 | ≤ 20 | < 10 | < 2 | < 2 | < 2 | < 2 | COc1cc(Nc2ncc3c(=O)n(-c4c(Cl)cccc4Cl)ccc3n2)ccc1N1CCNCC1 [Example 13, 6-(2,6-Dichlorophenyl)-2-((3-methoxy-4-(piperazin-1-yl)phenyl)amino)pyrido[4,3-d]pyrimidin-5(6H)-one, HCl] | ≥ 10000
3 |  | < 20 | < 40 | ≤ 100 | ≤ 20 | < 10 |  |  |  |  | O=c1c2cnc(Nc3ccc(N4CCNCC4)c(CO)c3)nc2ccn1-c1c(Cl)cccc1Cl [Example 18, 6-(2,6-Dichlorophenyl)-2-((3-(hydroxymethyl)-4-(piperazin-1-yl)phenyl)amino)pyrido[4,3-d]pyrimidin-5(6H)-one] | ≥ 10000
4 | > 25 | < 20 | < 40 | ≤ 100 | ≤ 20 | < 10 | < 2 | < 2 | < 2 | < 2 | CNCc1cc(Nc2ncc3c(=O)n(-c4c(Cl)cccc4Cl)ccc3n2)ccc1N1CCOCC1 [Example 20, 6-(2,6-Dichlorophenyl)-2-((3-((methylamino)methyl)-4-morpholinophenyl)amino)pyrido[4,3-d]pyrimidin-5(6H)-one] | ≥ 10000
